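Cultured in 96-well plates, cells were exposed to test compound for 48 hours across five concentrations. TGI marks complete inhibition of growth.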
What was measured:
Experiment in all cases: NCI tumour cell line growth inhibition, 48 h
786-0 renal = test system: 786-0 renal
A498 renal = test system: A498 renal
A549 NSCLC = test system: A549 NSCLC
ACHN renal = test system: ACHN renal
BT-549 breast = test system: BT-549 breast
CAKI-1 renal = test system: CAKI-1 renal
COLO 205 colon = test system: COLO 205 colon
DU-145 prostate = test system: DU-145 prostate
EKVX NSCLC = test system: EKVX NSCLC
HCT-116 colon = test system: HCT-116 colon
HCT-15 colon = test system: HCT-15 colon
HL-60(TB) leukemia = test system: HL-60(TB) leukemia
HOP-62 NSCLC = test system: HOP-62 NSCLC
HOP-92 NSCLC = test system: HOP-92 NSCLC
HS 578T breast = test system: HS 578T breast
HT29 colon = test system: HT29 colon
IGROV1 ovarian = test system: IGROV1 ovarian
K-562 leukemia = test system: K-562 leukemia
KM12 colon = test system: KM12 colon
LOX IMVI melanoma = test system: LOX IMVI melanoma
M14 melanoma = test system: M14 melanoma
MALME-3M melanoma = test system: MALME-3M melanoma
MCF7 breast = test system: MCF7 breast
MDA-MB-231 breast = test system: MDA-MB-231 breast
MDA-MB-435 = test system: MDA-MB-435
MDA-N = test system: MDA-N
MOLT-4 leukemia = test system: MOLT-4 leukemia
NCI-H226 lung = test system: NCI-H226 lung
NCI-H23 lung = test system: NCI-H23 lung
NCI-H522 lung = test system: NCI-H522 lung
NCI/ADR-RES ovarian = test system: NCI/ADR-RES ovarian
OVCAR-3 ovarian = test system: OVCAR-3 ovarian
OVCAR-4 ovarian = test system: OVCAR-4 ovarian
OVCAR-5 ovarian = test system: OVCAR-5 ovarian
OVCAR-8 ovarian = test system: OVCAR-8 ovarian
PC-3 prostate = test system: PC-3 prostate
RPMI-8226 leukemia = test system: RPMI-8226 leukemia
RXF 393 renal = test system: RXF 393 renal
SF-268 CNS = test system: SF-268 CNS
SF-295 CNS = test system: SF-295 CNS
SK-MEL-2 melanoma = test system: SK-MEL-2 melanoma
SK-MEL-28 melanoma = test system: SK-MEL-28 melanoma
SK-MEL-5 melanoma = test system: SK-MEL-5 melanoma
SK-OV-3 ovarian = test system: SK-OV-3 ovarian
SN12C renal = test system: SN12C renal
SNB-19 CNS = test system: SNB-19 CNS
SR leukemia = test system: SR leukemia
SW-620 colon = test system: SW-620 colon
T-47D breast = test system: T-47D breast
TK-10 renal = test system: TK-10 renal
U251 CNS = test system: U251 CNS
UACC-257 melanoma = test system: UACC-257 melanoma
UACC-62 melanoma = test system: UACC-62 melanoma
UO-31 renal = test system: UO-31 renal
CCRF-CEM leukemia = test system: CCRF-CEM leukemia
NCI-H460 lung = test system: NCI-H460 lung
SF-539 CNS = test system: SF-539 CNS
HCC-2998 colon = test system: HCC-2998 colon
SNB-75 CNS = test system: SNB-75 CNS

CC(C)(C)OCC1NC(=O)[C@@H]2Cc3c([nH]c4ccccc34)C(C3CCCCC3)N2C1=O (stereo partly specified)
TGI (786-0 renal): 50.2 µM
TGI (A498 renal): > 100 µM
TGI (A549 NSCLC): > 100 µM
TGI (ACHN renal): 68.6 µM
TGI (BT-549 breast): 56.8 µM
TGI (CAKI-1 renal): 53.8 µM
TGI (COLO 205 colon): 51.4 µM
TGI (DU-145 prostate): > 100 µM
TGI (EKVX NSCLC): 67.9 µM
TGI (HCT-116 colon): 30.5 µM
TGI (HCT-15 colon): 69 µM
TGI (HL-60(TB) leukemia): 52.1 µM
TGI (HOP-62 NSCLC): 39.6 µM
TGI (HOP-92 NSCLC): 55.7 µM
TGI (HS 578T breast): 51.8 µM
TGI (HT29 colon): 35.7 µM
TGI (IGROV1 ovarian): 57.7 µM
TGI (K-562 leukemia): 61.6 µM
TGI (KM12 colon): 44 µM
TGI (LOX IMVI melanoma): 33.3 µM
TGI (M14 melanoma): 42 µM
TGI (MALME-3M melanoma): 42.8 µM
TGI (MCF7 breast): > 100 µM
TGI (MDA-MB-231 breast): 35.1 µM
TGI (MDA-MB-435): 35.7 µM
TGI (MDA-N): 37.4 µM
TGI (MOLT-4 leukemia): 49.6 µM
TGI (NCI-H226 lung): 74.9 µM
TGI (NCI-H23 lung): 57.8 µM
TGI (NCI-H522 lung): 31.4 µM
TGI (NCI/ADR-RES ovarian): 57.5 µM
TGI (OVCAR-3 ovarian): 33.8 µM
TGI (OVCAR-4 ovarian): > 100 µM
TGI (OVCAR-5 ovarian): 50.8 µM
TGI (OVCAR-8 ovarian): 87.3 µM
TGI (PC-3 prostate): 46.3 µM
TGI (RPMI-8226 leukemia): 49 µM
TGI (RXF 393 renal): 38.4 µM
TGI (SF-268 CNS): 95.6 µM
TGI (SF-295 CNS): 40.8 µM
TGI (SK-MEL-2 melanoma): 40.8 µM
TGI (SK-MEL-28 melanoma): 77.6 µM
TGI (SK-MEL-5 melanoma): 29 µM
TGI (SK-OV-3 ovarian): > 100 µM
TGI (SN12C renal): 43.1 µM
TGI (SNB-19 CNS): > 100 µM
TGI (SR leukemia): 45.4 µM
TGI (SW-620 colon): 85.5 µM
TGI (T-47D breast): 71.1 µM
TGI (TK-10 renal): 67.6 µM
TGI (U251 CNS): 38.5 µM
TGI (UACC-257 melanoma): 41 µM
TGI (UACC-62 melanoma): 31.2 µM
TGI (UO-31 renal): 98.8 µM

O=C(CCc1ccc(O)cc1)NCCc1cccc(O)c1
TGI (786-0 renal): > 50 µM
TGI (A498 renal): > 50 µM
TGI (A549 NSCLC): > 50 µM
TGI (ACHN renal): > 50 µM
TGI (BT-549 breast): > 50 µM
TGI (CAKI-1 renal): > 50 µM
TGI (CCRF-CEM leukemia): > 50 µM
TGI (COLO 205 colon): > 50 µM
TGI (DU-145 prostate): > 50 µM
TGI (EKVX NSCLC): > 50 µM
TGI (HCT-116 colon): > 50 µM
TGI (HCT-15 colon): > 50 µM
TGI (HL-60(TB) leukemia): > 50 µM
TGI (HOP-62 NSCLC): > 50 µM
TGI (HOP-92 NSCLC): > 50 µM
TGI (HS 578T breast): > 50 µM
TGI (HT29 colon): > 50 µM
TGI (IGROV1 ovarian): > 50 µM
TGI (K-562 leukemia): > 50 µM
TGI (KM12 colon): > 50 µM
TGI (LOX IMVI melanoma): > 50 µM
TGI (M14 melanoma): > 50 µM
TGI (MALME-3M melanoma): > 50 µM
TGI (MCF7 breast): > 50 µM
TGI (MDA-MB-231 breast): > 50 µM
TGI (MDA-MB-435): > 50 µM
TGI (MDA-N): > 50 µM
TGI (MOLT-4 leukemia): > 50 µM
TGI (NCI-H23 lung): > 50 µM
TGI (NCI-H460 lung): > 50 µM
TGI (NCI-H522 lung): > 50 µM
TGI (NCI/ADR-RES ovarian): > 50 µM
TGI (OVCAR-3 ovarian): > 50 µM
TGI (OVCAR-4 ovarian): > 50 µM
TGI (OVCAR-5 ovarian): > 50 µM
TGI (OVCAR-8 ovarian): > 50 µM
TGI (PC-3 prostate): > 50 µM
TGI (RXF 393 renal): > 50 µM
TGI (SF-268 CNS): > 50 µM
TGI (SF-295 CNS): > 50 µM
TGI (SF-539 CNS): > 50 µM
TGI (SK-MEL-2 melanoma): > 50 µM
TGI (SK-MEL-28 melanoma): > 50 µM
TGI (SK-MEL-5 melanoma): > 50 µM
TGI (SK-OV-3 ovarian): > 50 µM
TGI (SN12C renal): > 50 µM
TGI (SNB-19 CNS): > 50 µM
TGI (SR leukemia): > 50 µM
TGI (T-47D breast): > 50 µM
TGI (TK-10 renal): > 50 µM
TGI (U251 CNS): > 50 µM
TGI (UACC-257 melanoma): > 50 µM
TGI (UACC-62 melanoma): > 50 µM
TGI (UO-31 renal): > 50 µM

COc1ccccc1NCc1nnc(CCCCCCCCc2nnc(CNc3ccccc3OC)o2)o1
TGI (786-0 renal): > 100 µM
TGI (A498 renal): > 100 µM
TGI (A549 NSCLC): > 100 µM
TGI (ACHN renal): > 100 µM
TGI (BT-549 breast): > 100 µM
TGI (CAKI-1 renal): > 100 µM
TGI (CCRF-CEM leukemia): > 100 µM
TGI (COLO 205 colon): > 100 µM
TGI (DU-145 prostate): > 100 µM
TGI (EKVX NSCLC): > 100 µM
TGI (HCC-2998 colon): > 100 µM
TGI (HCT-116 colon): > 100 µM
TGI (HCT-15 colon): > 100 µM
TGI (HOP-62 NSCLC): > 100 µM
TGI (HOP-92 NSCLC): > 100 µM
TGI (HS 578T breast): > 100 µM
TGI (HT29 colon): > 100 µM
TGI (K-562 leukemia): > 100 µM
TGI (KM12 colon): > 100 µM
TGI (LOX IMVI melanoma): > 100 µM
TGI (M14 melanoma): > 100 µM
TGI (MALME-3M melanoma): > 100 µM
TGI (MCF7 breast): > 100 µM
TGI (MDA-MB-231 breast): > 100 µM
TGI (MDA-MB-435): > 100 µM
TGI (MDA-N): > 100 µM
TGI (MOLT-4 leukemia): > 100 µM
TGI (NCI-H23 lung): > 100 µM
TGI (NCI-H460 lung): > 100 µM
TGI (NCI-H522 lung): > 100 µM
TGI (NCI/ADR-RES ovarian): > 100 µM
TGI (OVCAR-3 ovarian): > 100 µM
TGI (OVCAR-4 ovarian): > 100 µM
TGI (OVCAR-5 ovarian): > 100 µM
TGI (OVCAR-8 ovarian): > 100 µM
TGI (PC-3 prostate): > 100 µM
TGI (RPMI-8226 leukemia): > 100 µM
TGI (RXF 393 renal): > 100 µM
TGI (SF-268 CNS): > 100 µM
TGI (SF-295 CNS): > 100 µM
TGI (SK-MEL-2 melanoma): > 100 µM
TGI (SK-MEL-5 melanoma): > 100 µM
TGI (SK-OV-3 ovarian): > 100 µM
TGI (SN12C renal): > 100 µM
TGI (SNB-19 CNS): > 100 µM
TGI (SNB-75 CNS): > 100 µM
TGI (SR leukemia): > 100 µM
TGI (T-47D breast): > 100 µM
TGI (TK-10 renal): > 100 µM
TGI (U251 CNS): > 100 µM
TGI (UACC-257 melanoma): > 100 µM
TGI (UACC-62 melanoma): > 100 µM
TGI (UO-31 renal): > 100 µM
